# Test results as given in US9249116B2, “Enzyme-activating compounds and compositions” (The Board of Trustees of the University of Illinois, priority 2012, dated 2016).
# Where two headings read alike, the source gives them in different places.
# Tests used:
# mice = assay: Assessment of toxicity in vivo; settings: mice; scale 0 to 3, or time of death
# Source text: The level of toxicity was rated on a scale of 0 (no observable adverse effect) to 3 (severe toxicity, almost fatal).
# [1] = test system: U-937 cells (human lymphoma); assay: 72 Hour IC50 cell death assay (sulforhodamine B); type: cell-based
# Description: After the synthesis was complete, the biological activity of the compounds was evaluated.
# U-937 human lymphoma cells were plated into the wells of 96 well plate at a density of 15,000 cells per well in 99 μL of RPMI 1640 growth media with 10% FBS and 1% pen-strep. To each well was added 1 μL of compound stock solutions in DMSO at varying concentrations such that the cells were treated with concentrations between 0 μM and 100 μM compound. Each concentration was tested in quintuplicate per plate. In each plate 5 wells received 20 μM doxorubicin as a positive death control and 5 wells received 1 μL of DMSO as a negative control.
# After the 72 hour incubation period, the plates were analyzed using a Sulforhodamine B assay (Vichai and Kirtikara, Nat Protoc 2006, 1, 1112-1116). Specifically, to each well of the plate 25 μL of a 50% (w/v) solution of trichloroacetic acid in H2O was added and the plates were incubated for 4 hours at 4° C. The plates were then washed gently with water five times. The plates were allowed to air dry after which 100 μL of a 0.057% (w/v) Sulforhodamine B in a 1% (v/v) acetic acid solution was added to each well for 30 minutes at room temperature. The plates were gently washed 5 times with 1% (v/v) acetic acid and air dried. 200 μL of 10 mM Tris base (pH 10.4) was added to each well and the plates were placed on an orbital shaker for thirty minutes. The level of SRB was quantified fluorometrically at excitation and emission wavelengths 488 and 585 nm, respectively, on a Molecular Devices plate reader and the percent cell death calculated and normalized to the positive control (100% cell death) and the negative control (0% cell death). The percent cell death was averaged for each compound concentration and plotted as a function of compound concentration. The data were fit to a logistical dose response curve using Table curve 2D and the IC50 value was calculated. The experiment was repeated three times and the average of the calculated IC50 values was reported. The standard error of the mean (SEM) was determined and reported for the triplicate experiments.
# [2] = Liver microsome stability assay; type: in vitro ADME; settings: rat liver microsomes, 10 μM, LC/MS
# Description: FIG. 4. Liver Microsome Stability Assay. Compounds (10 μM) incubated with liver microsomes for 3 h and quenched with MeCN containing internal standard, analyzed by LC/MS (280 nm). Next, the metabolic stability of the compounds was evaluated in rat liver microsomes. The compounds were evaluated for 3 hours at 10 μM, and the metabolites were observed by LC/MS.
# [3] = read-out: U-937 72 h IC50 (μM), Table 1, U-937 cells, 72 h
SMILES,Mouse Toxicity (mice),"IC50 [1, 3] [µM]",RLM 3 h % Stability [2] [%],"IC50 ([1]; U-937, 72 h, read-out: U-937 72 h IC50 (μM)) [µM]"
"C=CCc1cc(F)cc(/C=N/NC(=O)CN2CCN(C(=O)c3ccccc3)CC2)c1O [Compound 30, N′-(3-allyl-5-fluoro-2-hydroxybenzylidene)-2-(4-benzoylpiperazin-1-yl)acetohydrazide]",2,8.6 ± 2,93 ± 7,
"O=C(CN1CCN(C(=O)c2ccccc2)CC1)N/N=C/c1cc(F)ccc1O [Compound 21, 2-(4-benzoylpiperazin-1-yl)-N′-(5-fluoro-2-hydroxybenzylidene)acetohydrazide]",,15.7 ± 2.6,88 ± 1,
CCCc1cccc(/C=N/NC(=O)CN2CCN(Cc3ccc(C(F)(F)F)cc3)CC2)c1O [Compound 17],,,15 ± 2,
"O=C(CN1CCN(C(=O)c2ccc(C(F)(F)F)cc2)CC1)N/N=C/c1cc(F)ccc1O [Compound 27, N′-(5-fluoro-2-hydroxybenzylidene)-2-(4-(4-(trifluoromethyl)benzoyl)piperazin-1-yl)acetohydrazide]",2,8.7 ± 0.5,87 ± 3,
"C=CCc1cc(F)cc(/C=N/NC(=O)CN2CCN(Cc3ccc(C(F)(F)F)cc3)CC2)c1O [Compound 35, N′-(3-allyl-5-fluoro-2-hydroxybenzylidene)-2-(4-(4-(trifluoromethyl)benzyl)piperazin-1-yl)acetohydrazide]",,,49 ± 3,
"C=CCc1cc(F)cc(/C=N/NC(=O)CN2CCN(C(=O)c3ccc(F)cc3)CC2)c1O [Compound 34, N′-(3-allyl-5-fluoro-2-hydroxybenzylidene)-2-(4-(4-fluorobenzoyl)piperazin-1-yl)acetohydrazide]",3,8.5 ± 1.4,92 ± 3,
"CCCc1cc(F)cc(/C=N/NC(=O)CN2CCN(Cc3ccc(C#N)cc3)CC2)c1O [Compound 40, 2-(4-(4-cyanobenzyl)piperazin-1-yl)-N′-(5-fluoro-2-hydroxy-3-propylbenzylidene)acetohydrazide]",,11.2 ± 0.9,49 ± 5,
"CCCc1cc(F)cc(/C=N/NC(=O)CN2CCN(C(=O)c3ccc(C#N)cc3)CC2)c1O [Compound 41, 2-(4-(4-cyanobenzoyl)piperazin-1-yl)-N′-(5-fluoro-2-hydroxy-3-propylbenzylidene)acetohydrazide]",,,66 ± 3,
"CCCc1cccc(/C=N/NC(=O)CN2CCN(Cc3ccc(S(N)(=O)=O)cc3)CC2)c1O [Compound 11, 4-((4-(2-(2-(2-hydroxy-3-propylbenzylidene)hydrazinyl)-2-oxoethyl)piperazin-1-yl)methyl)benzenesulfonamide]",,,61 ± 2,
"CCCc1cccc(/C=N/NC(=O)CN2CCN(C(=O)c3ccc(C(F)(F)F)cc3)CC2)c1O [Compound 18, N′-(2-hydroxy-3-propylbenzylidene)-2-(4-(4-(trifluoromethyl)benzoyl)piperazin-1-yl)acetohydrazide]",,,64 ± 1,
"CCCc1cc(F)cc(/C=N/NC(=O)CN2CCN(C(=O)c3ccc(C(F)(F)F)cc3)CC2)c1O [Compound 45, N′-(5-fluoro-2-hydroxy-3-propylbenzylidene)-2-(4-(4-(trifluoromethyl)benzoyl)piperazin-1-yl)acetohydrazide]",,,64 ± 5,
"CCCc1cccc(/C=N/NC(=O)CN2CCN(Cc3ccccc3)CC2)c1O [Compound 10, 2-(4-benzylpiperazin-1-yl)-N′-(2-hydroxy-3-propylbenzylidene)acetohydrazide]",2,9.6 ± 2.1,30 ± 1,
"CCCc1cccc(/C=N/NC(=O)CN2CCN(Cc3ccc(C#N)cc3)CC2)c1O [Compound 13, 2-(4-(4-cyanobenzyl)piperazin-1-yl)-N′-(2-hydroxy-3-propylbenzylidene)acetohydrazide]",,9 ± 1.2,30 ± 2,
"C=CCc1cccc(/C=N/NC(=O)CN2CCN(Cc3ccc(C(F)(F)F)cc3)CC2)c1O [Compound 8, N′-(3-allyl-2-hydroxybenzylidene)-2-(4-(4-(trifluoromethyl)benzyl)piperazin-1-yl)acetohydrazide]",,,16 ± 1,
"O=C(CN1CCN(C(=O)c2ccc(F)cc2)CC1)N/N=C/c1cc(F)ccc1O [Compound 25, N′-(5-fluoro-2-hydroxybenzylidene)-2-(4-(4-fluorobenzoyl)piperazin-1-yl)acetohydrazide]",,15.3 ± 0.8,86 ± 2,
"C=CCc1cc(F)cc(/C=N/NC(=O)CN2CCN(C(=O)c3ccc(C(F)(F)F)cc3)CC2)c1O [Compound 36, N′-(3-allyl-5-fluoro-2-hydroxybenzylidene)-2-(4-(4-(trifluoromethyl)benzoyl)piperazin-1-yl)acetohydrazide]",,,90 ± 2,
"C=CCc1cc(F)cc(/C=N/NC(=O)CN2CCN(Cc3ccc(S(N)(=O)=O)cc3)CC2)c1O [Compound 29, 4-((4-(2-(2-(3-allyl-5-fluoro-2-hydroxybenzylidene)hydrazinyl)-2-oxoethyl)piperazin-1-yl)methyl)benzenesulfonamide]",,,89 ± 3,
"CCCc1cc(F)cc(/C=N/NC(=O)CN2CCN(Cc3ccc(S(N)(=O)=O)cc3)CC2)c1O [Compound 38, 4-((4-(2-(2-(5-fluoro-2-hydroxy-3-propylbenzylidene)hydrazinyl)-2-oxoethyl)piperazin-1-yl)methyl)benzenesulfonamide]",,,62 ± 3,
"C=CCc1cc(F)cc(/C=N/NC(=O)CN2CCN(Cc3ccc(F)cc3)CC2)c1O [Compound 33, N′-(3-allyl-5-fluoro-2-hydroxybenzylidene)-2-(4-(4-fluorobenzyl)piperazin-1-yl)acetohydrazide]",,10.3 ± 4.1,57 ± 1,
"CCCc1cccc(/C=N/NC(=O)CN2CCN(C(=O)c3ccccc3)CC2)c1O [Compound 12, 2-(4-benzoylpiperazin-1-yl)-N′-(2-hydroxy-3-propylbenzylidene)acetohydrazide]",,9.4 ± 1.3,71 ± 3,
"CCCc1cc(F)cc(/C=N/NC(=O)CN2CCN(Cc3ccc(C(F)(F)F)cc3)CC2)c1O [Compound 44, N′-(5-fluoro-2-hydroxy-3-propylbenzylidene)-2-(4-(4-(trifluoromethyl)benzyl)piperazin-1-yl)acetohydrazide]",,,40 ± 1,
"CCCc1cccc(/C=N/NC(=O)CN2CCN(C(=O)c3ccc(F)cc3)CC2)c1O [Compound 16, 2-(4-(4-fluorobenzoyl)piperazin-1-yl)-N′-(2-hydroxy-3-propylbenzylidene)acetohydrazide]",,7.3 ± 0.9,69 ± 4,
"CCCc1cc(F)cc(/C=N/NC(=O)CN2CCN(Cc3ccc(F)cc3)CC2)c1O [Compound 42, N′-(5-fluoro-2-hydroxy-3-propylbenzylidene)-2-(4-(4-fluorobenzyl)piperazin-1-yl)acetohydrazide]",,7.5 ± 0.7,48 ± 1,
"N#Cc1ccc(C(=O)N2CCN(CC(=O)N/N=C/c3cc(F)ccc3O)CC2)cc1 [Compound 23, 2-(4-(4-cyanobenzoyl)piperazin-1-yl)-N′-(5-fluoro-2-hydroxybenzylidene)acetohydrazide]",,,88 ± 4,15.3 ± 1.3
"C=CCc1cccc(/C=N/NC(=O)CN2CCN(C(=O)c3ccc(C(F)(F)F)cc3)CC2)c1O [Compound 9, N′-(3-allyl-2-hydroxybenzylidene)-2-(4-(4-(trifluoromethyl)benzoyl)piperazin-1-yl)acetohydrazide]",,,85 ± 6,
"CCCc1cccc(/C=N/NC(=O)CN2CCN(C(=O)c3ccc(C#N)cc3)CC2)c1O [Compound 14, 2-(4-(4-cyanobenzoyl)piperazin-1-yl)-N′-(2-hydroxy-3-propylbenzylidene)acetohydrazide]",,12.8 ± 2.7,61 ± 3,
"C=CCc1cc(F)cc(/C=N/NC(=O)CN2CCN(C(=O)c3ccc(C#N)cc3)CC2)c1O [Compound 32, N′-(3-allyl-5-fluoro-2-hydroxybenzylidene)-2-(4-(4-cyanobenzoyl)piperazin-1-yl)acetohydrazide]",,,95 ± 4,
"C=CCc1cc(F)cc(/C=N/NC(=O)CN2CCN(Cc3ccc(C#N)cc3)CC2)c1O [Compound 31, N′-(3-allyl-5-fluoro-2-hydroxybenzylidene)-2-(4-(4-cyanobenzyl)piperazin-1-yl)acetohydrazide]",,12.7 ± 2,65 ± 2,
